Tested on: lashes and adjacent hairs of glaucoma patients
Assay: Eyelash/hair growth observed in glaucoma patients treated in one eye
Format: in vivo, humans
Conditions: glaucoma patient treated in one eye only
Description: In the course of treating patients having glaucoma, treatment may only be appropriate in one eye. […] The lash appearance on the lids of the treated eyes would have appeared quite attractive if it represented a bilateral phenomenon. As a result of its asymmetric nature, the long lashes on one side could be construed as disturbing from a cosmetic standpoint. A systemic examination was preformed as a result of the asymmetric phenomenon. It soon became apparent that this altered appearance was not an isolated finding. […] Definite differences could be identified to varying degrees in the lashes and adjacent hairs of all patients who were taking the drug on a unilateral basis for longer than 6 months.
The changes in the lashes were apparent on gross inspection in several patients once attention was focused on the issue. In those with light colored hair and lashes, the differences were only seen easily with the aid of the high magnification and lighting capabilities of the slit lamp biomicroscope. In the course of glaucoma follow-up examination, attention is generally immediately focused on the eye itself. As a result of the high power magnification needed only one eye is seen at a time and the eye is seen at a high enough power that the lashes are not in focus. […]

CCNC(=O)CCC/C=C\C[C@@H]1[C@@H](/C=C/[C@@H](O)CCc2ccccc2)[C@H](O)C[C@@H]1O [bimatoprost]
lash appearance in treated eye versus non-treated eye: longer, thicker, and fuller

Reference: patent US20090233931A1, “THERAPEUTIC COMPOUNDS” (priority 2008, published 2009)
